Measured values published in patent US11104660B2, “PDE4D inhibitors” (TETRA DISCOVERY PARTNERS, INC., priority 2019, dated 2021).
Read-outs that look alike come from different tables or passages of the source.

Experiments:
[1] = Plasma free fraction of Compound A (spiked -10 min plasma samples); assay type: in vitro ADME, cynomolgus non-human primates (Macaca fascicularis); details: cynomolgus monkey, read-out: fp (%) Plasma free fraction
Experimental: (§1) A dynamic 90 (Subject 1) or 120 (Subject 2) minute PET scan acquisition was initiated at the start of Compound A injection, administered over 3 minutes via an infusion pump targeting an injected activity of 5 mCi. Relative to time of Compound A injection, arterial blood samples were collected in K2EDTA at −10, 0.75, 1.5, 2.25, 3, 4, 5, 10, 15, 30, 45, 60, 90 and 120 min. For each sample, an aliquot (200 uL) was gamma counted for radioactivity concentration determination, then processed to plasma. For −10, 5, 15, 30, 60, 90, 120 min plasma samples, radio HPLC was performed for determination of parent fraction of Compound A, and −10 min samples spiked with Compound A were used for stability analysis and determination of plasma free fraction. Aliquots (100 uL) of plasma samples collected at −10, 5, 15, 30, 60, 90, 120 min were frozen for subsequent determination of drug concentration levels.

PDE4D = assay: PET imaging of 11C-labeled Compound A in non-human primate brain (VT, uptake); assay type: in vivo, cynomolgus non-human primates (Macaca fascicularis); details: for VT (volume of distribution): 90 min
Experimental: The regional distribution and pharmacokinetics of ^11C-labeled compounds as described herein were evaluated on non-human primates via PET imaging.
Two male non-naïve cynomolgus non-human primates (Macaca fascicularis) (“Subject 1” and “Subject 2”) were utilized in this study (7.0 and 5.5 kg). Subjects had previously undergone surgery for placement of arterial access ports for blood collection from the iliac artery. Each subject underwent a brain MR in a Philips 1.5T Intera scanner using a 3D T1 FFE sequence for subsequent registration with PET and application of a cynomolgus brain region of interest atlas for determination of regional time-activity curves. PET scans were conducted in each subject under baseline condition (i.e., Compound A, only) and 15 minutes after a 10 minute infusion of Compound B at 3 mg/kg (i.e. blocking condition). Compound B is a known PDE4D ligand, alternatively referred to as BPN14770.
PET scans were conducted with a Siemens Focus 220 microPET scanner. Subjects were anesthetized with ketamine 10 mg/kg IM approximately 45 minutes prior to Compound A injection. Atropine sulfate 0.05 mg/kg IM was administered approximately 35 minutes prior to Compound A injection. Subjects were intubated and maintained on isoflurane (2-2.5%) and oxygen (2 L/min). Indwelling catheters were placed in the saphenous veins for drug infusion, tracer injection and fluids (LRS 10 mL/kg/hr IV). Subjects were transported to the PET imaging bed, positioned, and monitored for body temperature, heart rate, expired CO2, respiration rate, and pulse O2.
as §1
At the conclusion of PET scan acquisition, an x-ray CT scan by an 8 slice NeuroLogica CereTom OTOscan of each Subject was collected of the head at 120 kVp, 4 mAs, slice thickness 0.625 mm and processed using filtered back projection. The CT scan was used for co-registration to PET for attenuation and scatter correction of the reconstructed PET scan. Listmode PET data were binned into 6×0.5 min, 3×1 min, 2×2 min and 22 ×5 min frames. Binned sinogram data were reconstructed by filtered backprojection.
Reconstructed PET images were analyzed using PMOD software. PET scans were transformed into MR template space via rigid PET-to-MR and affine+nonlinear MR-to-template registrations. Time-activity curves were generated from regions of interest (ROIs) defined on the MR template including the anterior cingulate, cerebellum, dorsolateral prefrontal cortex, entorhinal cortex, occipital cortex, striatum and thalamus. Peak uptake in the brain was between about 3.2% and 5.6% of the injected dose.
Volume of distribution (VT) (mL/cm^3) of Compound A was estimated with the 2-tissue compartment (2TC) model and Logan graphical analysis (LGA, t*=30), for baseline and blocking scans, using 90 min of data. VT at baseline and blocking in ROIs were used to compute occupancy of Compound B via the occupancy (Lassen) plot. Time stability of VT estimated from 2TC and LGA models were assessed for both animals from 90 min or 120 minutes of data for baseline and blocking scans.

For `[2H]C([2H])(c1cn[nH]c1)c1ccc(O[11CH3])c(-c2cccc([N+](=O)[O-])c2)n1` [Compound A], the fraction unbound ([1]; Subject 1, baseline) was 0.059, the fraction unbound ([1]; Subject 1, blocking (Compound B 3 mg/kg)) was 0.059 and the fraction unbound ([1]; Subject 2, baseline) was 0.067. For the same compound, the fraction unbound ([1]; Subject 2, blocking (Compound B 3 mg/kg)) was 0.047, the “VT (volume of distribution)” value (PDE4D; Anterior Cingulate, Subject 1, 2TC, baseline) was 15.8 mL/cm^3 and the “VT (volume of distribution)” value (PDE4D; Anterior Cingulate, Subject 1, 2TC, blocking (Compound B 3 mg/kg)) was 8.8 mL/cm^3. For the same compound, the “VT (volume of distribution)” value (PDE4D; Anterior Cingulate, Subject 1, LGA, baseline) was 13.8 mL/cm^3, the “VT (volume of distribution)” value (PDE4D; Anterior Cingulate, Subject 1, LGA, blocking (Compound B 3 mg/kg)) was 8.9 mL/cm^3 and the “VT (volume of distribution)” value (PDE4D; Anterior Cingulate, Subject 2, 2TC, baseline) was 13.7 mL/cm^3. For the same compound, the “VT (volume of distribution)” value (PDE4D; Anterior Cingulate, Subject 2, 2TC, blocking (Compound B 3 mg/kg)) was 10.6 mL/cm^3, the “VT (volume of distribution)” value (PDE4D; Anterior Cingulate, Subject 2, LGA, baseline) was 14.6 mL/cm^3 and the “VT (volume of distribution)” value (PDE4D; Anterior Cingulate, Subject 2, LGA, blocking (Compound B 3 mg/kg)) was 10.4 mL/cm^3. For the same compound, the “VT (volume of distribution)” value (PDE4D; Cerebellum, Subject 1, 2TC, baseline) was 11.5 mL/cm^3, the “VT (volume of distribution)” value (PDE4D; Cerebellum, Subject 1, 2TC, blocking (Compound B 3 mg/kg)) was 7.6 mL/cm^3 and the “VT (volume of distribution)” value (PDE4D; Cerebellum, Subject 1, LGA, baseline) was 10.2 mL/cm^3. For the same compound, the “VT (volume of distribution)” value (PDE4D; Cerebellum, Subject 1, LGA, blocking (Compound B 3 mg/kg)) was 7.7 mL/cm^3, the “VT (volume of distribution)” value (PDE4D; Cerebellum, Subject 2, 2TC, baseline) was 8.6 mL/cm^3 and the “VT (volume of distribution)” value (PDE4D; Cerebellum, Subject 2, 2TC, blocking (Compound B 3 mg/kg)) was 9.6 mL/cm^3. The “VT (volume of distribution)” value (PDE4D; Cerebellum, Subject 2, LGA, baseline) was 9.2 mL/cm^3, the “VT (volume of distribution)” value (PDE4D; Cerebellum, Subject 2, LGA, blocking (Compound B 3 mg/kg)) was 9.7 mL/cm^3 and the “VT (volume of distribution)” value (PDE4D; Dorsolateral Frontal Cortex, Subject 1, 2TC, baseline) was 26.2 mL/cm^3. For the same compound, the “VT (volume of distribution)” value (PDE4D; Dorsolateral Frontal Cortex, Subject 1, 2TC, blocking (Compound B 3 mg/kg)) was 10.2 mL/cm^3, the “VT (volume of distribution)” value (PDE4D; Dorsolateral Frontal Cortex, Subject 1, LGA, baseline) was 22.9 mL/cm^3 and the “VT (volume of distribution)” value (PDE4D; Dorsolateral Frontal Cortex, Subject 1, LGA, blocking (Compound B 3 mg/kg)) was 10.1 mL/cm^3. For the same compound, the “VT (volume of distribution)” value (PDE4D; Dorsolateral Frontal Cortex, Subject 2, 2TC, baseline) was 15.2 mL/cm^3, the “VT (volume of distribution)” value (PDE4D; Dorsolateral Frontal Cortex, Subject 2, 2TC, blocking (Compound B 3 mg/kg)) was 12.3 mL/cm^3 and the “VT (volume of distribution)” value (PDE4D; Dorsolateral Frontal Cortex, Subject 2, LGA, baseline) was 15.5 mL/cm^3. For the same compound, the “VT (volume of distribution)” value (PDE4D; Dorsolateral Frontal Cortex, Subject 2, LGA, blocking (Compound B 3 mg/kg)) was 10.6 mL/cm^3, the “VT (volume of distribution)” value (PDE4D; Enthorinal Cortex, Subject 1, 2TC, baseline) was 14.6 mL/cm^3 and the “VT (volume of distribution)” value (PDE4D; Enthorinal Cortex, Subject 1, 2TC, blocking (Compound B 3 mg/kg)) was 8.1 mL/cm^3. The “VT (volume of distribution)” value (PDE4D; Enthorinal Cortex, Subject 1, LGA, baseline) was 11.7 mL/cm^3, the “VT (volume of distribution)” value (PDE4D; Enthorinal Cortex, Subject 1, LGA, blocking (Compound B 3 mg/kg)) was 7.4 mL/cm^3 and the “VT (volume of distribution)” value (PDE4D; Enthorinal Cortex, Subject 2, 2TC, baseline) was 10.8 mL/cm^3. For the same compound, the “VT (volume of distribution)” value (PDE4D; Enthorinal Cortex, Subject 2, 2TC, blocking (Compound B 3 mg/kg)) was 10.1 mL/cm^3, the “VT (volume of distribution)” value (PDE4D; Enthorinal Cortex, Subject 2, LGA, baseline) was 10.5 mL/cm^3 and the “VT (volume of distribution)” value (PDE4D; Enthorinal Cortex, Subject 2, LGA, blocking (Compound B 3 mg/kg)) was 7.8 mL/cm^3. The “VT (volume of distribution)” value (PDE4D; Hippocampus, Subject 1, 2TC, baseline) was 30.3 mL/cm^3, the “VT (volume of distribution)” value (PDE4D; Hippocampus, Subject 1, 2TC, blocking (Compound B 3 mg/kg)) was 7.4 mL/cm^3 and the “VT (volume of distribution)” value (PDE4D; Hippocampus, Subject 1, LGA, baseline) was 19.4 mL/cm^3. The “VT (volume of distribution)” value (PDE4D; Hippocampus, Subject 1, LGA, blocking (Compound B 3 mg/kg)) was 7.5 mL/cm^3, the “VT (volume of distribution)” value (PDE4D; Hippocampus, Subject 2, 2TC, baseline) was 19.8 mL/cm^3 and the “VT (volume of distribution)” value (PDE4D; Hippocampus, Subject 2, 2TC, blocking (Compound B 3 mg/kg)) was 11.1 mL/cm^3. The “VT (volume of distribution)” value (PDE4D; Hippocampus, Subject 2, LGA, baseline) was 17.4 mL/cm^3, the “VT (volume of distribution)” value (PDE4D; Hippocampus, Subject 2, LGA, blocking (Compound B 3 mg/kg)) was 11.0 mL/cm^3 and the “VT (volume of distribution)” value (PDE4D; Occipital Cortex, Subject 1, 2TC, baseline) was 17.8 mL/cm^3. The “VT (volume of distribution)” value (PDE4D; Occipital Cortex, Subject 1, 2TC, blocking (Compound B 3 mg/kg)) was 8.4 mL/cm^3, the “VT (volume of distribution)” value (PDE4D; Occipital Cortex, Subject 1, LGA, baseline) was 15.1 mL/cm^3 and the “VT (volume of distribution)” value (PDE4D; Occipital Cortex, Subject 1, LGA, blocking (Compound B 3 mg/kg)) was 8.0 mL/cm^3. The “VT (volume of distribution)” value (PDE4D; Occipital Cortex, Subject 2, 2TC, baseline) was 12.9 mL/cm^3, the “VT (volume of distribution)” value (PDE4D; Occipital Cortex, Subject 2, 2TC, blocking (Compound B 3 mg/kg)) was 10.6 mL/cm^3 and the “VT (volume of distribution)” value (PDE4D; Occipital Cortex, Subject 2, LGA, baseline) was 13.1 mL/cm^3. For the same compound, the “VT (volume of distribution)” value (PDE4D; Occipital Cortex, Subject 2, LGA, blocking (Compound B 3 mg/kg)) was 10.0 mL/cm^3, the Brain entry (PDE4D; PET image analysis) was “readily entered the brain” and the Regional uptake (PDE4D; PET image analysis) was “consistent with the known distribution of Compound B”. The “VT (volume of distribution)” value (PDE4D; Striatum, Subject 1, 2TC, baseline) was 14.9 mL/cm^3, the “VT (volume of distribution)” value (PDE4D; Striatum, Subject 1, 2TC, blocking (Compound B 3 mg/kg)) was 9.0 mL/cm^3 and the “VT (volume of distribution)” value (PDE4D; Striatum, Subject 1, LGA, baseline) was 13.9 mL/cm^3. The “VT (volume of distribution)” value (PDE4D; Striatum, Subject 1, LGA, blocking (Compound B 3 mg/kg)) was 9.2 mL/cm^3, the “VT (volume of distribution)” value (PDE4D; Striatum, Subject 2, 2TC, baseline) was 13.2 mL/cm^3 and the “VT (volume of distribution)” value (PDE4D; Striatum, Subject 2, 2TC, blocking (Compound B 3 mg/kg)) was 11.5 mL/cm^3. For the same compound, the “VT (volume of distribution)” value (PDE4D; Striatum, Subject 2, LGA, baseline) was 13.4 mL/cm^3, the “VT (volume of distribution)” value (PDE4D; Striatum, Subject 2, LGA, blocking (Compound B 3 mg/kg)) was 11.2 mL/cm^3 and the “VT (volume of distribution)” value (PDE4D; Thalamus, Subject 1, 2TC, baseline) was 17.6 mL/cm^3. For the same compound, the “VT (volume of distribution)” value (PDE4D; Thalamus, Subject 1, 2TC, blocking (Compound B 3 mg/kg)) was 8.8 mL/cm^3, the “VT (volume of distribution)” value (PDE4D; Thalamus, Subject 1, LGA, baseline) was 15.7 mL/cm^3 and the “VT (volume of distribution)” value (PDE4D; Thalamus, Subject 1, LGA, blocking (Compound B 3 mg/kg)) was 8.9 mL/cm^3. For the same compound, the “VT (volume of distribution)” value (PDE4D; Thalamus, Subject 2, 2TC, baseline) was 11.6 mL/cm^3, the “VT (volume of distribution)” value (PDE4D; Thalamus, Subject 2, 2TC, blocking (Compound B 3 mg/kg)) was 9.9 mL/cm^3 and the “VT (volume of distribution)” value (PDE4D; Thalamus, Subject 2, LGA, baseline) was 12.1 mL/cm^3. The “VT (volume of distribution)” value (PDE4D; Thalamus, Subject 2, LGA, blocking (Compound B 3 mg/kg)) was 9.8 mL/cm^3 and the “Change of Compound A in regions of high uptake on blockage of PDE4D” value (PDE4D; high dose of Compound B) was “substantial reduction”.
